What was measured:
[1] = target: Coagulation factor VII/tissue factor (Homo sapiens, UniProt P08709); test: Inhibition of human tissue factor/factor 7a; assay type: protein-complex assay
Prothrombin = Prothrombin (Homo sapiens, UniProt P00734); test: Inhibition of human factor 2a by spectrophotometry
Coagulation factor X = Coagulation factor X (Homo sapiens, UniProt P00742); test: Inhibition of human factor 10a by spectrometry
Sequence of Coagulation factor X (P00742 41-179 limits assumed): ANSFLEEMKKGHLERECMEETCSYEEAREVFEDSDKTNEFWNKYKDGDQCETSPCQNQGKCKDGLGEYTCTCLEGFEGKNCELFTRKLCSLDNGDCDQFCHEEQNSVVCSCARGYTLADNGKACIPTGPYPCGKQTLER
Sequence of Coagulation factor X (P00742 235-488 limits assumed): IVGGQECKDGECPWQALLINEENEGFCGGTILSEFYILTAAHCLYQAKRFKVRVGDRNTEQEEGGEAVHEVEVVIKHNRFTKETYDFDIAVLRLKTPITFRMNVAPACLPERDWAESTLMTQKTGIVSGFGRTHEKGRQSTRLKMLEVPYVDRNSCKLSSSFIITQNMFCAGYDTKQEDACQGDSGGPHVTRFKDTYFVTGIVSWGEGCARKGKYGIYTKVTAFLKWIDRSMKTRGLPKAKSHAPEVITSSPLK

Sequence of Coagulation factor VII/tissue factor (P08709 61-212 limits assumed): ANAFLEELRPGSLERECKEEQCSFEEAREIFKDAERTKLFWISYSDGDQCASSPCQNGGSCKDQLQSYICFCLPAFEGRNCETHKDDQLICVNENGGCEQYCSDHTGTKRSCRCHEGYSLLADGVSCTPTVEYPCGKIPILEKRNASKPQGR
Sequence of Coagulation factor VII/tissue factor (P08709 213-466 limits assumed): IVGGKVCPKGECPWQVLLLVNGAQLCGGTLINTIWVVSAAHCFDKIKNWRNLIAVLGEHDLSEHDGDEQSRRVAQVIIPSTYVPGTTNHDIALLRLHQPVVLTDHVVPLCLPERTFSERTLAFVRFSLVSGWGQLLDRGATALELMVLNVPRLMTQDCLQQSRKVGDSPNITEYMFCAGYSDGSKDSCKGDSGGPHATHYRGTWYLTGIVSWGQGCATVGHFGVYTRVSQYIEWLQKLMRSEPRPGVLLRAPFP
Sequence of Coagulation factor VII/tissue factor (P13726 33-295 partner limits assumed): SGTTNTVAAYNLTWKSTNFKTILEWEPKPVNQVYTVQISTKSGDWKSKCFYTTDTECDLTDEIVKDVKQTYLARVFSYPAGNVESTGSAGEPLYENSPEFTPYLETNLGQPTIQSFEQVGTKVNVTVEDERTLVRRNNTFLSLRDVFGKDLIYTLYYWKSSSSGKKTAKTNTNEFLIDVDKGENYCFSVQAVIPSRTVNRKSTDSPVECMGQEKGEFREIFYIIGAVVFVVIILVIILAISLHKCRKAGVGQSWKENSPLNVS

| SMILES | IC50 [1] [µM] | IC50 (Prothrombin) [µM] | IC50 (Coagulation factor X) [µM] |
| --- | --- | --- | --- |
| N=C(N)c1ccc(CNC(=O)CN2C(=O)[C@@H](NS(=O)(=O)Cc3ccccc3)CSc3ccccc32)cc1 | 27.9 | 48 | – |
| N=C(N)c1ccc(CNC(=O)CCN2C(=O)[C@H](NC(=O)CCC(=O)O)CSc3ccccc32)cc1 | 61 | – | – |
| N=C(N)c1ccc(CNC(=O)CCN2C(=O)[C@@H](NCC(=O)O)CSc3ccccc32)cc1 | > 330 | 33 | – |
| N=C(N)c1ccc(CNC(=O)CCN2C(=O)[C@@H](NC(=O)CCC(=O)O)CSc3ccccc32)cc1 | 166 | > 33 | – |
| N=C(N)c1ccc(CNC(=O)CCN2C(=O)[C@H](NS(=O)(=O)Cc3ccccc3)CSc3ccccc32)cc1 | 63 | – | – |
| Cc1nc(N)ccc1CNC(=O)CN1C(=O)[C@H](NS(=O)(=O)Cc2ccccc2)CSc2ccccc21 | > 33 | – | – |
| N=C(N)c1ccc(CNC(=O)CCN2C(=O)[C@H](NCC(=O)O)CSc3ccccc32)cc1 | 95 | – | – |
| N=C(N)c1ccc(CNC(=O)CN2C(=O)[C@H](NS(=O)(=O)Cc3ccccc3)CSc3cc(C(=O)O)ccc32)cc1 | > 33 | – | – |
| Cc1nc(N)ccc1CNC(=O)CCN1C(=O)[C@H](NS(=O)(=O)Cc2ccccc2)CSc2ccccc21 | > 33 | – | – |
| N=C(N)c1ccc(CNC(=O)CCN2C(=O)[C@@H](NS(=O)(=O)Cc3ccccc3)CSc3ccccc32)cc1 | 19.7 | – | – |
| CC(=O)N[C@H]1CSc2ccccc2N(CCC(=O)NCc2ccc(C(=N)N)cc2)C1=O | 168 | – | – |
| N=C(N)c1ccc(CNC(=O)CN2C(=O)[C@@H](N)CSc3ccccc32)cc1 | 24.4 | 87 | – |
| N=C(N)c1ccc(CNC(=O)CN2C(=O)[C@@H](NC(=O)CCC(=O)O)CSc3ccccc32)cc1 | 27.7 | > 300 | – |
| CC(=O)N[C@@H]1CSc2ccccc2N(CCC(=O)NCc2ccc(C(=N)N)cc2)C1=O | 233 | – | – |
| Cc1nc(N)ccc1CNC(=O)CN1C(=O)[C@@H](N)CSc2ccccc21 | > 300 | 88 | – |
| Cc1nc(N)ccc1CNC(=O)CCN1C(=O)[C@H](NCC(=O)O)CSc2ccccc21 | > 33 | – | – |
| CC(=O)N[C@@H]1CSc2ccccc2N(CC(=O)NCc2ccc(C(=N)N)cc2)C1=O | 90 | – | – |
| CC(=O)N[C@H]1CSc2ccccc2N(CC(=O)NCc2ccc(C(=N)N)cc2)C1=O | 37.3 | 100 | – |
| CC(=O)N[C@H]1CSc2ccccc2N(CC(=O)NCc2ccc(N)nc2C)C1=O | > 300 | 130 | – |
| CC(=O)N[C@@H]1CSc2ccccc2N(CC(=O)NCc2ccc(N)nc2C)C1=O | > 300 | 133 | – |
| Cc1nc(N)ccc1CNC(=O)CN1C(=O)[C@H](NCC(=O)O)CSc2ccccc21 | > 33 | – | – |
| Cc1nc(N)ccc1CNC(=O)CN1C(=O)[C@H](N)CSc2ccccc21 | > 300 | 88 | – |
| N=C(N)c1ccc(CNC(=O)CN2C(=O)[C@H](NC(=O)C(c3ccccc3)c3ccccc3)CSc3ccccc32)cc1 | > 33 | – | – |
| N=C(N)c1ccc(CNC(=O)CN2C(=O)C(NC(=O)CCC(=O)O)CSc3ccccc32)cc1 (single isomer, unassigned) | 81 | 300 | – |

Molecules with a lower IC50 [1], results first:

| IC50 [1] [µM] | IC50 (Prothrombin) [µM] | IC50 (Coagulation factor X) [µM] | SMILES |
| --- | --- | --- | --- |
| 15.9 | – | – | N=C(N)c1ccc(CNC(=O)CN2C(=O)[C@H](NCC(=O)O)CSc3ccccc32)cc1 |
| 14.3 | – | – | N=C(N)c1ccc(CNC(=O)CN2C(=O)[C@H](NS(=O)(=O)Cc3ccccc3)CSc3cc(CC(=O)O)ccc32)cc1 |
| 13.1 | – | – | N=C(N)c1ccc(CNC(=O)CN2C(=O)[C@H](NS(=O)(=O)Cc3ccccc3)CSc3cc(CCC(=O)O)ccc32)cc1 |
| 10.9 | – | – | N=C(N)c1ccc(CNC(=O)CN2C(=O)[C@H](NS(=O)(=O)Cc3ccccc3)CSc3ccc(-c4ccccc4)cc32)cc1 |
| 6.86 | 10 | 3.23 | N=C(N)c1ccc(CNC(=O)CN2C(=O)[C@H](NS(=O)(=O)Cc3ccccc3)CSc3ccc(-c4cccc(N)c4)cc32)cc1 |
| 5.96 | 0.79 | 2.81 | N=C(N)c1ccc(CNC(=O)CN2C(=O)[C@H](NS(=O)(=O)Cc3ccccc3)CSc3ccc(-c4cccc([N+](=O)[O-])c4)cc32)cc1 |
| 5.6 | 10 | 0.8 | N=C(N)c1ccc(CNC(=O)CN2C(=O)[C@H](NS(=O)(=O)Cc3ccccc3)CSc3cc(CN)ccc32)cc1 |
| 4.86 | 7.05 | 1.63 | N=C(N)c1ccc(CNC(=O)CN2C(=O)[C@H](NS(=O)(=O)Cc3ccccc3)CSc3cc(N)ccc32)cc1 |
| 4.67 | – | – | N=C(N)c1ccc(CNC(=O)CN2C(=O)[C@H](NS(=O)(=O)Cc3ccccc3)CSc3ccc(C(=O)O)cc32)cc1 |
| 2.98 | 33 | 0.21 | N=C(N)c1ccc(CNC(=O)CN2C(=O)[C@H](NS(=O)(=O)Cc3ccccc3)CSc3ccc(CC(=O)O)cc32)cc1 |
| 2.64 | 33 | 2.03 | N=C(N)c1ccc(CNC(=O)CN2C(=O)[C@H](NS(=O)(=O)Cc3ccccc3)CSc3ccc(CCC(=O)O)cc32)cc1 |
| 2.3 | 1.89 | 1.52 | N=C(N)c1ccc(CNC(=O)CN2C(=O)[C@H](NS(=O)(=O)Cc3ccccc3)CSc3ccc(N)cc32)cc1 |
| 2.16 | 0.37 | 3.28 | N=C(N)c1ccc(CNC(=O)CN2C(=O)C(NS(=O)(=O)Cc3ccccc3)CSc3ccccc32)cc1 (single isomer, unassigned) |
| 1.86 | 10 | 1.72 | N=C(N)c1ccc(CNC(=O)CN2C(=O)[C@H](NS(=O)(=O)Cc3ccccc3)CSc3ccc(CN)cc32)cc1 |
| 1.5 | 33 | 1.05 | N=C(N)c1ccc(CNC(=O)CN2C(=O)[C@H](NS(=O)(=O)Cc3ccccc3)CSc3ccc(CC(N)C(=O)O)cc32)cc1 (stereo partly drawn) |
| 1.32 | 6.23 | 2.79 | N=C(N)c1ccc(CNC(=O)CN2C(=O)[C@H](NS(=O)(=O)Cc3ccccc3)CSc3ccc(CCN)cc32)cc1 |
